{
  "source": "patent US9682995B2",
  "about": "“Amino-substituted isothiazoles” (BAYER PHARMA AKTIENGESELLSCHAFT, priority 2013, dated 2017)",
  "assay_in_all_cases": "Kinase Profiling (KINOMEscan)",
  "format_in_all_cases": "binding",
  "key": {"[1]": {"target": "456 kinases (of these 395 non-mutant kinases) (Homo sapiens, UniProt O14733)", "sequence (O14733 2-419 limits assumed, change not shown)": "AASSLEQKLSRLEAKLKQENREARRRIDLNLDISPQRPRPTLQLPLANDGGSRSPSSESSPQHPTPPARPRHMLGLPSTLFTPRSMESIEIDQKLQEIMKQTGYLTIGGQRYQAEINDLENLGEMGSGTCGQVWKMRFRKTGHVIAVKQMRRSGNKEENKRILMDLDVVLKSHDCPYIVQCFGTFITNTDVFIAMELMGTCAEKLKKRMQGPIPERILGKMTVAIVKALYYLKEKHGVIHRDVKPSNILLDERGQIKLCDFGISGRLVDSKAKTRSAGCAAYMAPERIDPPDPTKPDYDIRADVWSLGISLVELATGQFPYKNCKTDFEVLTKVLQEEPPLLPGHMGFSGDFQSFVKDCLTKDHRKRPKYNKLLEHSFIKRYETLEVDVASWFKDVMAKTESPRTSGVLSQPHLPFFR", "conditions": "MKK7; 10 μM"}, "[2]": {"target": "456 kinases (of these 395 non-mutant kinases) (Homo sapiens, UniProt Q9UBF8)", "sequence (Q9UBF8 2-816 limits assumed, change not shown)": "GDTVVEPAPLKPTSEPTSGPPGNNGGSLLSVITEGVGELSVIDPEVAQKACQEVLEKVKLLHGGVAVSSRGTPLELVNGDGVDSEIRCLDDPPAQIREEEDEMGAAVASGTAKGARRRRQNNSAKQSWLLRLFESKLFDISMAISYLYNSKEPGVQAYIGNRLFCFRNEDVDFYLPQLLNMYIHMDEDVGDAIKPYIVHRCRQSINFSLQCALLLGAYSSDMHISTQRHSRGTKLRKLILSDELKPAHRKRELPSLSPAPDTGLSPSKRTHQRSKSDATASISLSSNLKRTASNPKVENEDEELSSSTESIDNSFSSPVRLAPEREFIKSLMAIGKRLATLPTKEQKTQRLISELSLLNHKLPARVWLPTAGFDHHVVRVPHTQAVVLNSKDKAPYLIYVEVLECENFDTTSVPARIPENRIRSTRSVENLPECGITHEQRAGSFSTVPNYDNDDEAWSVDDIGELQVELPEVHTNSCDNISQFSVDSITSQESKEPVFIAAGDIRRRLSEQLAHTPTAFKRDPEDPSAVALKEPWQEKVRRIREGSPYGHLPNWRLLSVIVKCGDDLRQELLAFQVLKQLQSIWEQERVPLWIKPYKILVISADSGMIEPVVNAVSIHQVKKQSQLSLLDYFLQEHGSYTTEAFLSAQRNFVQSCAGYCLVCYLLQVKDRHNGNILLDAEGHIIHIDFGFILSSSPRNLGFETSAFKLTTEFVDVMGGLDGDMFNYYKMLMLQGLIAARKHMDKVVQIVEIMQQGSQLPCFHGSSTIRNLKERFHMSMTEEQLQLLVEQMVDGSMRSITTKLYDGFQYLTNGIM", "conditions": "PIK4CB; 10 μM"}, "[3]": {"target": "456 kinases (of these 395 non-mutant kinases) (Homo sapiens, UniProt Q15746)", "conditions": "MYLK; 10 μM"}, "[4]": {"target": "456 kinases (of these 395 non-mutant kinases) (Homo sapiens, UniProt P37173)", "sequence (P37173 23-567 limits assumed, change not shown)": "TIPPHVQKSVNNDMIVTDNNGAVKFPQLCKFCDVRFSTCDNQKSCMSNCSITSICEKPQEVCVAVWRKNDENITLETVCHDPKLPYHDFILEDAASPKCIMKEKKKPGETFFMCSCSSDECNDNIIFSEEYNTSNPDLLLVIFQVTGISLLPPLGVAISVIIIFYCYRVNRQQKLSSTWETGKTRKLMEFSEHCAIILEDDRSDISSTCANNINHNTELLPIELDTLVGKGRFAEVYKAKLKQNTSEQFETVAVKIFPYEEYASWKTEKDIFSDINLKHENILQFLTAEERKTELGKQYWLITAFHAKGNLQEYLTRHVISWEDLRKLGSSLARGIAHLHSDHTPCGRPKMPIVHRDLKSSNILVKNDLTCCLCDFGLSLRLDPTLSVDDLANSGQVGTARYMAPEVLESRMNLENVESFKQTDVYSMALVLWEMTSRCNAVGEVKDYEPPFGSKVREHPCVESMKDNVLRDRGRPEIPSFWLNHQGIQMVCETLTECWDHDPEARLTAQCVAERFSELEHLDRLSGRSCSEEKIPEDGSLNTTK", "conditions": "TGFBR2; 10 μM"}, "[5]": {"target": "456 kinases (of these 395 non-mutant kinases) (Homo sapiens, UniProt P36888, N841I)", "conditions": "FLT3(N841I); 10 μM"}, "[6]": {"target": "456 kinases (of these 395 non-mutant kinases) (Homo sapiens, UniProt P51817)", "conditions": "PRKX; 10 μM"}, "[7]": {"target": "456 kinases (of these 395 non-mutant kinases) (Homo sapiens, UniProt P36888, D835Y)", "conditions": "FLT3(D835Y); 10 μM"}, "[8]": {"target": "456 kinases (of these 395 non-mutant kinases) (Homo sapiens, UniProt Q8N4C8)", "conditions": "MINK; 10 μM"}, "[9]": {"target": "456 kinases (of these 395 non-mutant kinases) (Homo sapiens, UniProt Q9UL54)", "conditions": "TAOK2; 10 μM"}, "[10]": {"target": "456 kinases (of these 395 non-mutant kinases) (Homo sapiens, UniProt P07949, M918T)", "sequence (P07949 29-1114 M918T limits assumed)": "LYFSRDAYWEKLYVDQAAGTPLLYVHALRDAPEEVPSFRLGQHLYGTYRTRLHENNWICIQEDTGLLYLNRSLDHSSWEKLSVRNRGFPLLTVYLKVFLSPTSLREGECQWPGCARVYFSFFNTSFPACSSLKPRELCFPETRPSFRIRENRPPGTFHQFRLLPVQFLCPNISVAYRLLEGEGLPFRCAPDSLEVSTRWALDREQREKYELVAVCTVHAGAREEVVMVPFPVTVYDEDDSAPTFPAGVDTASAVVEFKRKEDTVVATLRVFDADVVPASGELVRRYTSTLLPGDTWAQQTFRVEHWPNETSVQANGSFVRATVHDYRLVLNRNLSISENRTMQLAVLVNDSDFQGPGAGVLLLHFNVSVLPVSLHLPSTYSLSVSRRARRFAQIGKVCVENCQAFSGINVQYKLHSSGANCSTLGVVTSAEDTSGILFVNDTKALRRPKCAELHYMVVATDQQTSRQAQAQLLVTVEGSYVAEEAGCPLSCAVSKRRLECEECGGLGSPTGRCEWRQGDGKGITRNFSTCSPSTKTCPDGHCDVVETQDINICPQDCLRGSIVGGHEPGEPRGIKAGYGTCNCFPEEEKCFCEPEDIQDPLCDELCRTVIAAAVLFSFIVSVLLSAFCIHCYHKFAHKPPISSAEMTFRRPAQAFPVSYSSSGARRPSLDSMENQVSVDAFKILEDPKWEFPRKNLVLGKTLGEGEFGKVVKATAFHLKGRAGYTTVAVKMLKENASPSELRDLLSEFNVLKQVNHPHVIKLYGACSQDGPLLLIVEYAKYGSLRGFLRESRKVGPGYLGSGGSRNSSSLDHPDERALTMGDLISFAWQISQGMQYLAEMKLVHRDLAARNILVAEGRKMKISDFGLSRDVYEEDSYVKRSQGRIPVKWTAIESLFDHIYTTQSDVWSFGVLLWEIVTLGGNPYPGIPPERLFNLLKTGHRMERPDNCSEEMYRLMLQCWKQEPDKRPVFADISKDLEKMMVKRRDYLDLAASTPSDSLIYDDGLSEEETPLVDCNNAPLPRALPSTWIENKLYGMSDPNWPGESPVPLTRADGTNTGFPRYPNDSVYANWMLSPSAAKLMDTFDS", "conditions": "RET(M918T); 10 μM"}, "[11]": {"target": "456 kinases (of these 395 non-mutant kinases) (Homo sapiens, UniProt P42336, E545A)", "conditions": "PIK3CA(E545A); 10 μM"}, "[12]": {"target": "456 kinases (of these 395 non-mutant kinases) (Homo sapiens, UniProt Q8NG66)", "conditions": "NEK11; 10 μM"}, "[13]": {"target": "456 kinases (of these 395 non-mutant kinases) (Homo sapiens, UniProt P57058)", "conditions": "HUNK; 10 μM"}, "[14]": {"target": "456 kinases (of these 395 non-mutant kinases) (Homo sapiens, UniProt Q8TF76)", "conditions": "HASPIN; 10 μM"}, "[15]": {"target": "456 kinases (of these 395 non-mutant kinases) (Homo sapiens, UniProt Q16816)", "conditions": "PHKG1; 10 μM"}, "[16]": {"target": "456 kinases (of these 395 non-mutant kinases) (Homo sapiens, UniProt P43403)", "conditions": "ZAP70; 10 μM"}, "[17]": {"target": "456 kinases (of these 395 non-mutant kinases) (Homo sapiens, UniProt Q9Y6M4)", "conditions": "CSNK1G3; 10 μM"}, "[18]": {"target": "456 kinases (of these 395 non-mutant kinases) (Homo sapiens, UniProt Q8N752)", "conditions": "CSNK1A1L; 10 μM"}, "[19]": {"target": "456 kinases (of these 395 non-mutant kinases) (Homo sapiens, UniProt P42336, H1047Y)", "conditions": "PIK3CA(H1047Y); 10 μM"}, "[20]": {"target": "456 kinases (of these 395 non-mutant kinases) (Homo sapiens, UniProt Q16620)", "sequence (Q16620 32-822 limits assumed, change not shown)": "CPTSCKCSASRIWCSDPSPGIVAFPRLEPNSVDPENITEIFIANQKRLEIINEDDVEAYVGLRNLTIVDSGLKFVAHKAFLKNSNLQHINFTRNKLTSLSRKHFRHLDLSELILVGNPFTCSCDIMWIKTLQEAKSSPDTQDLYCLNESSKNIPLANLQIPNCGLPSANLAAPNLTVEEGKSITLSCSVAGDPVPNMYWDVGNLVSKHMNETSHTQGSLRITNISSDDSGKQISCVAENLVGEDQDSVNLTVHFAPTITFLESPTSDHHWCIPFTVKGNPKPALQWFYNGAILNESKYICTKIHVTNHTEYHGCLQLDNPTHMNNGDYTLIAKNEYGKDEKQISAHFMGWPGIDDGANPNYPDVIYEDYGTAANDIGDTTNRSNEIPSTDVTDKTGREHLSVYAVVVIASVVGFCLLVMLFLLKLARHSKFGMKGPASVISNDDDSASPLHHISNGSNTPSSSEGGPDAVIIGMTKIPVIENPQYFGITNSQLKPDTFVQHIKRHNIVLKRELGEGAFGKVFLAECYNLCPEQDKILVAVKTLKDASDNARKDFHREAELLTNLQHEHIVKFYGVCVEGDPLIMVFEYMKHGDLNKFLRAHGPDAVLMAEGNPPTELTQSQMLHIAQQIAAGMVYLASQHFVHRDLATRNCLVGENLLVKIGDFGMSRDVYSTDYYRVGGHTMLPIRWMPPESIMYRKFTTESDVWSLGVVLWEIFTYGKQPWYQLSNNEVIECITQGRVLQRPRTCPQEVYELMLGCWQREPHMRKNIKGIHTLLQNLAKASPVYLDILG", "conditions": "TRKB; 10 μM"}, "[21]": {"target": "456 kinases (of these 395 non-mutant kinases) (Homo sapiens, UniProt P22455)", "sequence (P22455 22-802 limits assumed, change not shown)": "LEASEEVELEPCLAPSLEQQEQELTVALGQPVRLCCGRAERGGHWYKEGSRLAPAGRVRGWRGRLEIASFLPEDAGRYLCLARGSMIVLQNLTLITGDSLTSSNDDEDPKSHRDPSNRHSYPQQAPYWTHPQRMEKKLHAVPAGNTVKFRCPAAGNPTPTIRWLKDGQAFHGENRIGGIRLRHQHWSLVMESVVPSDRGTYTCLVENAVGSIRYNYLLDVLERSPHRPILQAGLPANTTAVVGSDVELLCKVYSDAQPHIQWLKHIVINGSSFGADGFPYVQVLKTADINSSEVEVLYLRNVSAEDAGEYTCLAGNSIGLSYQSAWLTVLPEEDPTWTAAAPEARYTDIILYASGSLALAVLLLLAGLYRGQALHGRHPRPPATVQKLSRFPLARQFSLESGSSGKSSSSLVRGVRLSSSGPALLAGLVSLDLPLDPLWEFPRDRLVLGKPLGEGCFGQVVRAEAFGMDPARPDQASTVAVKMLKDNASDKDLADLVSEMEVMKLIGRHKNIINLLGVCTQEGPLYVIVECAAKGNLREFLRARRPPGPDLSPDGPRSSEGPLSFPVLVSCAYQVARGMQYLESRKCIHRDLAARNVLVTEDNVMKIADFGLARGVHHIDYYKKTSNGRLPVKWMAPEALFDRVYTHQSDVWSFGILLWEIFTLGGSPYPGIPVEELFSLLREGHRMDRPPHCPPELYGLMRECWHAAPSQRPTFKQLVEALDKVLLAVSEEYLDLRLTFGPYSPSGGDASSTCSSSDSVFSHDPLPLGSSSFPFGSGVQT", "conditions": "FGFR4; 10 μM"}, "[22]": {"target": "456 kinases (of these 395 non-mutant kinases) (Homo sapiens, UniProt O96013)", "conditions": "PAK4; 10 μM"}, "[23]": {"target": "456 kinases (of these 395 non-mutant kinases) (Homo sapiens, UniProt P07332)", "conditions": "FES; 10 μM"}, "[24]": {"target": "456 kinases (of these 395 non-mutant kinases) (Homo sapiens, UniProt Q15139)", "conditions": "PRKD1; 10 μM"}, "[25]": {"target": "456 kinases (of these 395 non-mutant kinases) (Homo sapiens, UniProt Q6XUX3)", "conditions": "RIPK5; 10 μM"}, "[26]": {"target": "456 kinases (of these 395 non-mutant kinases) (Homo sapiens, UniProt P49674)", "conditions": "CSNK1E; 10 μM"}, "[27]": {"target": "456 kinases (of these 395 non-mutant kinases) (Homo sapiens, UniProt P07949, V804M)", "sequence (P07949 29-1114 V804M limits assumed)": "as the sequence (P07949 29-1114 M918T limits assumed) above, with V776M, T890M counted along it", "conditions": "RET(V804M); 10 μM"}, "[28]": {"target": "456 kinases (of these 395 non-mutant kinases) (Homo sapiens, UniProt P27448)", "conditions": "MARK3; 10 μM"}, "[29]": {"target": "456 kinases (of these 395 non-mutant kinases) (Homo sapiens, UniProt P0C1S8)", "conditions": "WEE2; 10 μM"}, "[30]": {"target": "456 kinases (of these 395 non-mutant kinases) (Homo sapiens, UniProt Q13523)", "conditions": "PRP4; 10 μM"}, "[31]": {"target": "456 kinases (of these 395 non-mutant kinases) (Homo sapiens, UniProt Q14164)", "conditions": "IKK-epsilon; 10 μM"}, "[32]": {"target": "456 kinases (of these 395 non-mutant kinases) (Homo sapiens, UniProt P36894)", "sequence (P36894 24-532 limits assumed, change not shown)": "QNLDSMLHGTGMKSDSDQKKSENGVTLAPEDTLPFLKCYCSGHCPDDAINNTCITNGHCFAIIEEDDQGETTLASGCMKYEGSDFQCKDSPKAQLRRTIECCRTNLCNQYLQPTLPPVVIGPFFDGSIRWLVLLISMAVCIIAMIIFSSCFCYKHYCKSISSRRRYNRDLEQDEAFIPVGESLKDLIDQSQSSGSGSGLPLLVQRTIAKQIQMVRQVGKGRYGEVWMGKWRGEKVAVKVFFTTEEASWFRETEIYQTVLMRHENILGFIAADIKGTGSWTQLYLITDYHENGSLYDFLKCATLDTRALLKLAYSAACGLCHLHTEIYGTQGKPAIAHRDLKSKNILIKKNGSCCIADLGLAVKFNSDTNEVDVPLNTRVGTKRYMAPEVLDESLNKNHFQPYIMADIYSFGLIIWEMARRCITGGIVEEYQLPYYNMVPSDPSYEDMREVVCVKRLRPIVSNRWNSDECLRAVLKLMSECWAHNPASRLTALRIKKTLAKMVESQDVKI", "conditions": "BMPR1A; 10 μM"}},
  "data": [
    {"smiles": "CCc1ccccc1NC(=O)c1c(C)nsc1Nc1cnc2cc(F)ccc2n1", "note": "[Example 20, N-(2-Ethylphenyl)-5-[(6-fluoroquinoxalin-2-yl)amino]-3-methyl-1,2-thiazole-4-carboxamide]", "values": [
      {"measurement": "% Ctrl @ 10 μM", "setting": "[1]", "value": 100, "unit": "% Ctrl"},
      {"measurement": "% Ctrl @ 10 μM", "setting": "[2]", "value": 78, "unit": "% Ctrl"},
      {"measurement": "% Ctrl @ 10 μM", "setting": "[3]", "value": 87, "unit": "% Ctrl"},
      {"measurement": "% Ctrl @ 10 μM", "setting": "[4]", "value": 100, "unit": "% Ctrl"},
      {"measurement": "% Ctrl @ 10 μM", "setting": "[5]", "value": 84, "unit": "% Ctrl"},
      {"measurement": "% Ctrl @ 10 μM", "setting": "[6]", "value": 75, "unit": "% Ctrl"},
      {"measurement": "% Ctrl @ 10 μM", "setting": "[7]", "value": 100, "unit": "% Ctrl"},
      {"measurement": "% Ctrl @ 10 μM", "setting": "[8]", "value": 100, "unit": "% Ctrl"},
      {"measurement": "% Ctrl @ 10 μM", "setting": "[9]", "value": 100, "unit": "% Ctrl"},
      {"measurement": "% Ctrl @ 10 μM", "setting": "[10]", "value": 78, "unit": "% Ctrl"},
      {"measurement": "% Ctrl @ 10 μM", "setting": "[11]", "value": 95, "unit": "% Ctrl"},
      {"measurement": "% Ctrl @ 10 μM", "setting": "[12]", "value": 92, "unit": "% Ctrl"},
      {"measurement": "% Ctrl @ 10 μM", "setting": "[13]", "value": 93, "unit": "% Ctrl"},
      {"measurement": "% Ctrl @ 10 μM", "setting": "[14]", "value": 100, "unit": "% Ctrl"},
      {"measurement": "% Ctrl @ 10 μM", "setting": "[15]", "value": 70, "unit": "% Ctrl"},
      {"measurement": "% Ctrl @ 10 μM", "setting": "[16]", "value": 88, "unit": "% Ctrl"},
      {"measurement": "% Ctrl @ 10 μM", "setting": "[17]", "value": 70, "unit": "% Ctrl"},
      {"measurement": "% Ctrl @ 10 μM", "setting": "[18]", "value": 100, "unit": "% Ctrl"},
      {"measurement": "% Ctrl @ 10 μM", "setting": "[19]", "value": 100, "unit": "% Ctrl"},
      {"measurement": "% Ctrl @ 10 μM", "setting": "[20]", "value": 90, "unit": "% Ctrl"},
      {"measurement": "% Ctrl @ 10 μM", "setting": "[21]", "value": 77, "unit": "% Ctrl"},
      {"measurement": "% Ctrl @ 10 μM", "setting": "[22]", "value": 100, "unit": "% Ctrl"},
      {"measurement": "% Ctrl @ 10 μM", "setting": "[23]", "value": 94, "unit": "% Ctrl"},
      {"measurement": "% Ctrl @ 10 μM", "setting": "[24]", "value": 88, "unit": "% Ctrl"},
      {"measurement": "% Ctrl @ 10 μM", "setting": "[25]", "value": 100, "unit": "% Ctrl"},
      {"measurement": "% Ctrl @ 10 μM", "setting": "[26]", "value": 74, "unit": "% Ctrl"},
      {"measurement": "% Ctrl @ 10 μM", "setting": "[27]", "value": 100, "unit": "% Ctrl"},
      {"measurement": "% Ctrl @ 10 μM", "setting": "[28]", "value": 93, "unit": "% Ctrl"},
      {"measurement": "% Ctrl @ 10 μM", "setting": "[29]", "value": 100, "unit": "% Ctrl"},
      {"measurement": "% Ctrl @ 10 μM", "setting": "[30]", "value": 87, "unit": "% Ctrl"},
      {"measurement": "% Ctrl @ 10 μM", "setting": "[31]", "value": 100, "unit": "% Ctrl"},
      {"measurement": "% Ctrl @ 10 μM", "setting": "[32]", "value": 100, "unit": "% Ctrl"}
    ]}
  ]
}
